From paper PMC7047604 (Journal of medicinal chemistry, 2020)
Entries after “also recorded” stand apart in the source; their conditions may differ.

Assays:
human DOR [1] = molecular target: T1, human DOR (Homo sapiens, UniProt P41143); format: binding
male C57BL/6 mice = conditions: mouse, in vivo
human KOR [2] = molecular target: T2, human KOR (Homo sapiens, UniProt P41145); format: binding
human MOR = human MOR (Homo sapiens, UniProt P35372); assay: biochemical; format: biochemical; conditions: for Emax at 10 µM: read-out: Efficacy (% Stimulation) MOR
Chain of human MOR (P35372 whole entry): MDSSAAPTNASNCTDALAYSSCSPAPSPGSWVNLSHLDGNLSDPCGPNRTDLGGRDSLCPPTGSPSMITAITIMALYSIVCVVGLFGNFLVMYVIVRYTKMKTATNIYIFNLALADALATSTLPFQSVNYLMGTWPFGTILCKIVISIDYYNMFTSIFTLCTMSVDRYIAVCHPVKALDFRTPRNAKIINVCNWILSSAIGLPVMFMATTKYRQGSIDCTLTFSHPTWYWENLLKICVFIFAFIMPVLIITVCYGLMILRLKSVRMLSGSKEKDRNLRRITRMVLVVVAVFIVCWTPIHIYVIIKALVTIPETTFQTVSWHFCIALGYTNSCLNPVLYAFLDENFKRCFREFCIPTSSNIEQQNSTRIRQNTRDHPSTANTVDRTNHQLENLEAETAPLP

human KOR [3] = molecular target: T2, human KOR; format: biochemical
human DOR [4] = molecular target: T1, human DOR; format: biochemical
in vitro = conditions: mouse, microsomes, pH 7.4, metabolic half-life in MLM, abstract statement

T1 sequence (P41143 whole entry): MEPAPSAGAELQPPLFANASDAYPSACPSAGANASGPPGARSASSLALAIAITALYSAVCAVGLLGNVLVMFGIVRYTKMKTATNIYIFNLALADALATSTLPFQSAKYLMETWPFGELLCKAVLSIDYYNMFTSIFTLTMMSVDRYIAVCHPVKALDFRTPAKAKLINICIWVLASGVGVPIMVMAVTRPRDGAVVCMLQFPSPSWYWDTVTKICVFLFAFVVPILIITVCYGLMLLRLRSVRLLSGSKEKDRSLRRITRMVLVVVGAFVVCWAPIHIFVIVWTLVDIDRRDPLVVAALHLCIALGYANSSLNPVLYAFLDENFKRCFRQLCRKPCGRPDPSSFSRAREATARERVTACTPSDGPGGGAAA
T2 sequence (P41145 whole entry): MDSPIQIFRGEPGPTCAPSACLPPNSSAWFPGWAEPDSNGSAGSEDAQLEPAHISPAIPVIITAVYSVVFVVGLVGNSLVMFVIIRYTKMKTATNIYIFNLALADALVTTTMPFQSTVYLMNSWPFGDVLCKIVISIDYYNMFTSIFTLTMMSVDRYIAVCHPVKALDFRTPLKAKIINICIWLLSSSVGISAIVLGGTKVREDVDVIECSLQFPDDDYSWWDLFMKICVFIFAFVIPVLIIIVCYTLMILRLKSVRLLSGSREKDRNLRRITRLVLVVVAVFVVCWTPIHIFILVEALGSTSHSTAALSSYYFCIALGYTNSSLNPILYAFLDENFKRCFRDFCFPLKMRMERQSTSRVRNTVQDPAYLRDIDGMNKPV

CCOc1ccc(CN2CCCC2)cc1CNC(=O)[C@@H](N)Cc1c(C)cc(O)cc1C.O=C(O)C(F)(F)F [Compound 13, (S)-1-((2-ethoxy-5-(pyrrolidin-1-ylmethyl)benzyl)amino)-3-(4-hydroxy-2,6-dimethylphenyl)-1-oxopropan-2-aminium trifluoroacetate]
Selectivity MOR:DOR:KOR, DOR term (Ki DOR / Ki MOR) (human DOR [1]): 1:3.0:29
antinociceptive activity in AASA (overall) (male C57BL/6 mice): inactive; also recorded: lacked antinociceptive activity
Selectivity MOR:DOR:KOR, KOR term (Ki KOR / Ki MOR) (human KOR [2]): 1:3.0:29

CCOc1ccc(CN2CC3CC3C2)cc1CNC(=O)[C@@H](N)Cc1c(C)cc(O)cc1C.O=C(O)C(F)(F)F (stereo partly drawn) [Compound 15, (2S)-1-((5-((3-azabicyclo[3.1.0]hexan-3-yl)methyl)-2-ethoxybenzyl)amino)-3-(4-hydroxy-2,6-dimethylphenyl)-1-oxopropan-2-aminium trifluoroacetate]
Selectivity MOR:DOR:KOR, DOR term (Ki DOR / Ki MOR) (human DOR [1]): 1:2.6:13
Selectivity MOR:DOR:KOR, KOR term (Ki KOR / Ki MOR) (human KOR [2]): 1:2.6:13

CCOc1ccc(CNCc2ccccc2)cc1CNC(=O)[C@@H](N)Cc1c(C)cc(O)cc1C.O=C(O)C(F)(F)F [Compound 19, (S)-1-((5-((benzylamino)methyl)-2-ethoxybenzyl)amino)-3-(4-hydroxy-2,6-dimethylphenyl)-1-oxopropan-2-aminium trifluoroacetate]
Emax at 10 µM (human MOR): 77.9 ± 3%
Efficacy (% Stimulation) KOR (human KOR [3]): >20%
KOR binding affinity in words (human KOR [2]): low double-digit
Efficacy (% Stimulation) DOR (human DOR [4]): 26.1±1.7%
partial DOR agonist, potency in words (human DOR [4]): high

CCOc1ccc(CN(C)Cc2ccccc2)cc1CNC(=O)[C@@H](N)Cc1c(C)cc(O)cc1C.O=C(O)C(F)(F)F [Compound 20, (S)-1-((5-((benzyl(methyl)amino)methyl)-2-ethoxybenzyl)amino)-3-(4-hydroxy-2,6-dimethylphenyl)-1-oxopropan-2-aminium trifluoroacetate]
Selectivity MOR:DOR:KOR, DOR term (Ki DOR / Ki MOR) (human DOR [1]): 1:4.0:26
Emax at 10 µM (human MOR): 72.2 ± 6.2%
Efficacy (% Stimulation) KOR (human KOR [3]): DNS
Potency, EC50 KOR (human KOR [3]): DNS
antinociceptive activity in AASA (overall) (male C57BL/6 mice): inactive; also recorded: lacked antinociceptive activity
KOR binding affinity in words (human KOR [2]): low double-digit
Selectivity MOR:DOR:KOR, KOR term (Ki KOR / Ki MOR) (human KOR [2]): 1:4.0:26
Efficacy (% Stimulation) DOR (human DOR [4]): did not stimulate DOR and DNS
Potency, EC50 DOR (human DOR [4]): DNS

CCOc1ccc(CN2CCCCC2)cc1CNC(=O)[C@@H](N)Cc1c(C)cc(O)cc1C.O=C(O)C(F)(F)F [Compound 14, (S)-1-((2-ethoxy-5-(piperidin-1-ylmethyl)benzyl)amino)-3-(4-hydroxy-2,6-dimethylphenyl)-1-oxopropan-2-aminium trifluoroacetate]
Selectivity MOR:DOR:KOR, DOR term (Ki DOR / Ki MOR) (human DOR [1]): 1:3.1:20
Efficacy (% Stimulation) KOR (human KOR [3]): DNS
Potency, EC50 KOR (human KOR [3]): DNS
antinociceptive activity in AASA at 1 mg/kg (male C57BL/6 mice): active antinociceptive agents
Selectivity MOR:DOR:KOR, KOR term (Ki KOR / Ki MOR) (human KOR [2]): 1:3.1:20
half-life at 1 μM (in vitro): > 1 h

CCOc1ccc(C(=O)N2CCCC2)cc1CNC(=O)[C@@H](N)Cc1c(C)cc(O)cc1C.O=C(O)C(F)(F)F [Compound 21, (S)-1-((2-ethoxy-5-(pyrrolidine-1-carbonyl)benzyl)amino)-3-(4-hydroxy-2,6-dimethylphenyl)-1-oxopropan-2-aminium trifluoroacetate]
Selectivity MOR:DOR:KOR, DOR term (Ki DOR / Ki MOR) (human DOR [1]): 1:2.2:>22
Efficacy (% Stimulation) MOR (human MOR): DNS
Potency, EC50 MOR (human MOR): DNS
Efficacy (% Stimulation) KOR (human KOR [3]): DNS
Potency, EC50 KOR (human KOR [3]): DNS
Selectivity MOR:DOR:KOR, KOR term (Ki KOR / Ki MOR) (human KOR [2]): 1:2.2:>22
Efficacy (% Stimulation) DOR (human DOR [4]): did not stimulate DOR and DNS
Potency, EC50 DOR (human DOR [4]): DNS

CCOc1ccc(CN2CCOCC2)cc1CNC(=O)[C@@H](N)Cc1c(C)cc(O)cc1C.O=C(O)C(F)(F)F [Compound 16, (S)-1-((2-ethoxy-5-(morpholinomethyl)benzyl)amino)-3-(4-hydroxy-2,6-dimethylphenyl)-1-oxopropan-2-aminium trifluoroacetate]
Selectivity MOR:DOR:KOR, DOR term (Ki DOR / Ki MOR) (human DOR [1]): 1:2.0:>49
Efficacy (% Stimulation) KOR (human KOR [3]): DNS
Potency, EC50 KOR (human KOR [3]): DNS
Selectivity MOR:DOR:KOR, KOR term (Ki KOR / Ki MOR) (human KOR [2]): 1:2.0:>49
Efficacy (% Stimulation) DOR (human DOR [4]): did not stimulate DOR and DNS
Potency, EC50 DOR (human DOR [4]): DNS

CCOc1ccc(CN2Cc3ccccc3C2)cc1CNC(=O)[C@@H](N)Cc1c(C)cc(O)cc1C.O=C(O)C(F)(F)F [Compound 17, (S)-1-((2-ethoxy-5-(isoindolin-2-ylmethyl)benzyl)amino)-3-(4-hydroxy-2,6-dimethylphenyl)-1-oxopropan-2-aminium trifluoroacetate]
MOR agonist character in words (human MOR): full agonists
Emax at 10 µM (human MOR): 98.1 ± 6.7%
Efficacy (% Stimulation) KOR (human KOR [3]): DNS
Potency, EC50 KOR (human KOR [3]): DNS
antinociceptive activity in AASA at 1 mg/kg (male C57BL/6 mice): active antinociceptive agents
Efficacy (% Stimulation) DOR (human DOR [4]): 35.7±2.8%
partial DOR agonist, potency in words (human DOR [4]): moderate

CCOc1ccc(C(=O)N2Cc3ccccc3C2)cc1CNC(=O)[C@@H](N)Cc1c(C)cc(O)cc1C.O=C(O)C(F)(F)F [Compound 22, (S)-1-((2-ethoxy-5-(isoindoline-2-carbonyl)benzyl)amino)-3-(4-hydroxy-2,6-dimethylphenyl)-1-oxopropan-2-aminium trifluoroacetate]
Selectivity MOR:DOR:KOR, DOR term (Ki DOR / Ki MOR) (human DOR [1]): 1:20:900
Emax at 10 µM (human MOR): 27.8 ± 0.7%
Efficacy (% Stimulation) KOR (human KOR [3]): DNS
Potency, EC50 KOR (human KOR [3]): DNS
Efficacy (% Stimulation) DOR (human DOR [4]): did not stimulate DOR and DNS
Potency, EC50 DOR (human DOR [4]): DNS

CCOc1ccc(CN2CCc3ccccc3C2)cc1CNC(=O)[C@@H](N)Cc1c(C)cc(O)cc1C.O=C(O)C(F)(F)F [Compound 18, (S)-1-((5-((3,4-dihydroisoquinolin-2(1H)-yl)methyl)-2-ethoxybenzyl)amino)-3-(4-hydroxy-2,6-dimethylphenyl)-1-oxopropan-2-aminium trifluoroacetate]
Selectivity MOR:DOR:KOR, DOR term (Ki DOR / Ki MOR) (human DOR [1]): 1:10:192
MOR agonist character in words (human MOR): full agonists
Emax at 10 µM (human MOR): 94.6 ± 3.9%
Efficacy (% Stimulation) KOR (human KOR [3]): DNS
Potency, EC50 KOR (human KOR [3]): DNS
Efficacy (% Stimulation) DOR (human DOR [4]): did not stimulate DOR and DNS
Potency, EC50 DOR (human DOR [4]): DNS
